Experimental data published in patent US20200261391A1, “METHODS OF REDUCING THE RISK OF A CARDIOVASCULAR EVENT IN A STATIN-TREATED SUBJECT BY INCREASING SERUM AND PLASMA EPA AND DPA LEVELS” (Amarin Pharmaceuticals Ireland Limited, priority 2019, published 2020).

Key:
Type in all cases: in vivo, human
[1] = test system: patients with elevated triglyceride levels on statin therapy; assay: REDUCE-IT endpoints by EPA/AA ratio tertile in the icosapent ethyl group compared to placebo; settings: EPA/AA ≤0.373068; on-treatment average of year 1, year 2, last visit
[2] = test system: patients with elevated triglyceride levels on statin therapy; assay: REDUCE-IT endpoints by EPA blood level tertile in the icosapent ethyl group compared to placebo
Protocol: To assess the relationship between on-treatment hsCRP and the primary and key secondary endpoints, subgroup analyses were carried out as done for the ITT population for patients grouped according to values greater or equal to or less than […] at baseline and at 2 years. To assess the relationship between on-treatment serum EPA and the primary and key secondary endpoints, Kaplan-Meier (KM) curves were produced for AMR101 treated patients grouped into tertiles based on their values at year 1 and were compared with the placebo-treated patients.
This is a study aimed towards determining a relative risk reduction (RRR) between subjects stratified by EPA tertiles in the REDUCE-IT clinical trial described above in Example 1. Samples were obtained from those subjects and total EPA and AA levels in human serum and plasma samples were determined according at least to the methods described in Example 7.
The objective of this study is to assess the effects of administering icosapent ethyl at 4 g per day to patients from the REDUCE-IT trial of Example 1. More specifically, patients from the REDUCE-IT trial of Example 1 were stratified by their EPA levels into one of three tertiles. Following stratification, the objective was to determine if the RRR differs between patients having EPA levels in the three different tertiles. For the data collected as shown in Tables 38-43 and FIGS. 52, 53, and 56-59, the tertiles were established based on data collected from subjects at 1 year, 2 years, and last visit following icosapent ethyl administration compared to placebo. Data are presented as an average of 1 year, 2 year, […], and end of study values. The data was further analyzed use both pooled and unpooled statistically methods.

[3] = test system: patients with elevated triglyceride levels on statin therapy; assay: REDUCE-IT recurrent and total ischemic events (Example 2; Andersen-Gill and Wei-Lin-Weissfeld models); settings: for total key secondary endpoint events, HR / total key secondary endpoint events, number: without adjustment for stratification differences
From the text: The following study was a multi-center, placebo-controlled clinical trial the details of which are described above in Example 1, the REDUCE-IT design. […] Randomization was stratified by cardiovascular risk cohort (i.e., secondary or primary prevention), use of ezetimibe, and by geographic region.
The primary outcome for the study was total recurrent events consisting of the composite of cardiovascular death, nonfatal myocardial infarction, nonfatal stroke, coronary revascularization, or hospitalization for unstable angina. Recurrent event analyses were also performed for the key secondary endpoint, a composite of cardiovascular death, non-fatal myocardial infarction, or non-fatal stroke. For each of these composite endpoints, the effects of icosapent ethyl in the secondary and primary prevention strata were examined separately.
Demographic and baseline disease characteristics are presented using frequencies and percentages for categorical variables and medians with interquartile ranges for continuous variables. Between treatment group comparisons were derived using the chi-square test for categorical variables and Wilcoxon rank test for continuous variables. All clinical endpoint events used in the efficacy analyses were adjudicated by an independent Clinical Endpoint Committee (CEC) who were blinded to the treatment assignment. Since the primary efficacy endpoint was the time from randomization to the first occurrence of any component of the composite endpoint, and recurrence of such events within each patient is possible, a pre-specified analysis using a Cox proportional-hazard with the counting-process formulation of Andersen and Gill was performed to model the first and all recurrent cardiovascular events. Hazard ratios (HR) and corresponding 95% confidence intervals (CI) are reported from this model. In addition, as a marginal model and an extension of survival models based on the Cox proportional hazard model, the modified Wei-Lin-Weissfeld (WLW) method for analysis of recurrent events in the presence of deaths was carried out as a supportive analysis. In addition, as pre-specified, a recurrent event analysis using the Andersen-Gill and Wei-Lin-Weissfeld methods were carried out for the individual primary event components other than CV death. Though not pre-specified, additional recurrent event analyses were performed for the key secondary endpoint, which is a composite of CV death, non-fatal MI, or non-fatal stroke, and for the primary endpoint and the key secondary endpoint in the primary and secondary prevention strata to explore further the consistency of clinical benefit of icosapent ethyl. In subgroup analyses of the two cardiovascular risk strata (i.e., primary and secondary prevention), site-level discrepancies in cardiovascular risk group assignment occurring at entry and detected during the study (1.8%) were adjusted to conform with documented medical history data prior to randomization. All efficacy analyses were performed according to the intention-to-treat principle. All tests were based on a 2-sided nominal significance level of 5% with no adjustments for multiple comparisons.

[4] = EPA >189 μg/mL, on-treatment average of year 1, year 2, last visit
[5] = EPA >114.7 to ≤189 μg/mL, on-treatment average of year 1, year 2, last visit
[6] = EPA ≤114.7 μg/mL, on-treatment average of year 1, year 2, last visit
[7] = Wei-Lin-Weissfeld model, vs placebo
[8] = per 100 patients treated for five years

## CC/C=C\C/C=C\C/C=C\C/C=C\C/C=C\CCCC(=O)OCC [icosapent ethyl, eicosapentaenoic acid ethyl ester]
[1]
  HR (95% CI), Primary Endpoint, Lowest EPA/AA ratio tertile vs Placebo: 0.83 (0.71, 0.97)
[2]; EPA >189 μg/mL
  key secondary endpoint HR, highest EPA tertile vs. placebo: 0.65
  primary endpoint HR, highest EPA tertile vs. placebo: 0.65
[2]; [4]
  HR (95% CI), Key Secondary Endpoint, Highest EPA tertile vs Placebo: 0.65 (0.54, 0.80)
  HR (95% CI), Primary Endpoint, Highest EPA tertile vs Placebo: 0.65 (0.55, 0.76)
[2]; EPA >114.7 to ≤189 μg/mL
  key secondary endpoint HR, middle EPA tertile vs. placebo: 0.65
  primary endpoint HR, middle EPA tertile vs. placebo: 0.72
[2]; [5]
  HR (95% CI), Key Secondary Endpoint, Middle EPA tertile vs Placebo: 0.65 (0.53, 0.79)
  HR (95% CI), Primary Endpoint, Middle EPA tertile vs Placebo: 0.72 (0.62, 0.85)
[2]; EPA blood level ≤114.7 μg/mL
  key secondary endpoint HR, lowest EPA tertile vs. placebo: 0.89
  primary endpoint HR, lowest EPA tertile vs. placebo: 0.84
[2]; [6]
  HR (95% CI), Key Secondary Endpoint, Lowest EPA tertile vs Placebo: 0.89 (0.74, 1.07)
  HR (95% CI), Primary Endpoint, Lowest EPA tertile vs Placebo: 0.84 (0.72, 0.98)
[2]; FIG. 53, ITT, EPA >190.55 μg/mL
  primary composite endpoint HR, highest EPA tertile vs. placebo: 0.63
[2]; FIG. 53, ITT, EPA >116.9 to ≤190.55 μg/mL
  primary composite endpoint HR, middle EPA tertile vs. placebo: 0.74
[2]; FIG. 53, ITT, EPA ≤116.9 μg/mL
  primary composite endpoint HR, lowest EPA tertile vs. placebo: 0.85
[3]; Example 2
  first events, reduction: 25%
  second events, reduction: 28%
  third or more events, reduction: 50%
  total events for primary composite efficacy outcome, relative risk reduction: 32%
[3]; [7]
  first occurrence of primary composite endpoint, HR: 0.75
  second occurrence of primary composite endpoint, HR: 0.72
[3]; in vivo
  additional primary endpoint events, total reduction vs placebo (number): 179
  first primary endpoint events, total reduction vs placebo (number): 196
  second primary endpoint events, total reduction vs placebo (number): 164
[3]; overall trial, placebo 1,724
  total primary endpoint events, number: 1,185
[3]; overall, placebo 861
  total key secondary endpoints, number: 590
[3]; overall, vs placebo
  total key secondary endpoints, HR: 0.71
[3]; [8]
  cardiovascular deaths prevented: 1
  coronary revascularizations prevented: 8
  episodes of unstable angina prevented: 2
  myocardial infarctions prevented: 4
  strokes prevented: 1
[3]; placebo 360
  additional primary endpoint events, number: 131
[3]; placebo 463
  second primary endpoint events, number: 299
[3]; placebo 901
  first primary endpoint events, number: 705
[3]; primary prevention stratum
  total key secondary endpoints, HR: 0.71
[3]; primary prevention stratum, adjusted stratification
  total primary endpoint events, HR: 0.79
[3]; primary prevention stratum, adjusted stratification, placebo 256
  total primary endpoint events, number: 197
[3]; primary prevention stratum, without adjusting for stratification differences
  total primary endpoint events, HR: 0.86
[3]; primary prevention stratum, without adjusting for stratification differences, placebo 263
  total primary endpoint events, number: 221
[3]; primary prevention
  total key secondary endpoint events, HR: 0.78
[3]; primary prevention, placebo 142
  total key secondary endpoint events, number: 112
[3]; secondary prevention stratum
  total key secondary endpoints, HR: 0.70
  total key secondary endpoint events, HR: 0.69
[3]; secondary prevention stratum, adjusted stratification
  total primary endpoint events, HR: 0.66
[3]; secondary prevention stratum, adjusted stratification, placebo 1,468
  total primary endpoint events, number: 988
[3]; secondary prevention stratum, without adjusting for stratification differences
  total primary endpoint events, HR: 0.65
[3]; secondary prevention stratum, without adjusting for stratification differences, placebo 1,461
  total primary endpoint events, number: 964
[3]; secondary prevention stratum, placebo 671
  total key secondary endpoint events, number: 478
[3]; vs placebo, overall trial
  total primary endpoint events, HR: 0.68
